US11090326B2, “Fixed-dose pharmaceutical composition comprising rifabutin, clarithromycin, and clofazimine” (RedHill Biopharma Ltd., priority 2008, dated 2021)
Read-outs that look alike come from different tables or passages of the source.

Key:
[1] = Bioavailability study: single-dose plasma pharmacokinetics of 2 test formulations of triple combination capsules
From the text: The objectives of this study were to 1) determine and compare the rate and extent of absorption and 2) to assess the safety and tolerability of 2 test formulations of a combination product of clarithromycin, rifabutin and clofazimine (herein after “triple combination”).
This study followed a randomized, open-label, single-dose, 1-way 2-arm parallel design in 24 normal, healthy, non-smoking male and female subjects.
Subjects were admitted to the clinic the day before dosing, and remained until the 24.00 hour post-dose blood draw, at which time they were allowed to leave the clinic and after which they were required to return for subsequent blood draws.
Following an overnight fast of at least 10 hours, subjects began a high fat content meal 30 minutes prior to drug administration. Subjects consumed this meal in 30 minutes or less; however, the study drug was administered 30 minutes after the start of the meal. The FDA standard high-fat content breakfast consisted of the following: 2 eggs fried in butter, 2 strips of bacon, 2 slices of toast with butter, 4 ounces of hash brown potatoes and 8 fluid ounces (about.240 mL) of whole milk.
Following an overnight fast of at least 10 hours, and 30 minutes after the start of a high fat content meal, subjects received one of the following treatments at 0.00 hour on Day 1 of the study period according to a randomization scheme:
The medications were administered orally. The drugs were given 1 or more capsules at a time. All capsules were ingested within 1 minute.
During the study period, 19 blood samples (1×4 mL and 1×6 mL tube for each sampling time point) were collected from each subject by direct venipuncture or by Vasofix® intravenous catheter using pre-cooled, labelled blood collection tubes containing potassium ethylenediaminetetraacetic acid (EDTA) as the anticoagulant. Blood samples were collected at 0.00 (pre-dose), 0.25, 0.50, 0.75, 1.00, 1.50, 2.00, 2.50, 3.00, 4.00, 6.00, 8.00, 10.00, 12.00, 16.00, 24.00, 48.00, 60.00, and 96.00 hours post-dose. The clock times of all blood draws for plasma concentration analyses were recorded.
The 6 mL tubes were used to measure clarithromycin and 14-hydroxyclarithromycin. The 4 mL tubes were used to measure rifabutin, 25-O-desacetylrifabutin and clofazimine.
(§1) The blood samples were stored in an ice bath before centrifugation and were centrifuged as soon as possible under refrigerated conditions (at 4° C.) at 3500 rpm for 7 minutes. The collected plasma from each blood collection tube was aliquotted into pre-cooled labelled polypropylene tubes. A minimum of 1.5 mL of plasma was transferred from the 6 mL tubes into the first polypropylene tube, and all remaining plasma, if any, was transferred into a second polypropylene tube. The samples were kept in an ice bath, and flash frozen in an upright position, then stored at −70±10° C. until assayed.
as §1, with “In another procedure, the blood” for “The blood”, “of 0.8” for “of 1.5”, “the 4 mL,” for “the 6 mL”
Upon completion of the clinical portion of the study, all samples were analysed for clarithromycin and 14-hydroxyclarithromycin in the plasma samples or for rifabutin, 25-O-desacetylrifabutin and clofazimine in the plasma samples.
Clarithromycin and 14-hydroxyclarithromycin—Information about these analytes was obtained using routine methods known in the art.

[2] = clofazimine 200 mg dose, fed (Nix et al., 2004); cited from earlier work
[3] = Literature Cmax of clofazimine (Nix et al., 2004); details: in vivo; clofazimine 20 mg dose; read-out: Cmax, literature value scaled to dose of the study
[4] = single 300 mg dose of rifabutin, fasting; 10 HIV patients without wasting syndrome (Gatti et al., 1998); cited from earlier work
clinical = details: human, in vivo, 90 mg
From the text: Gatti et al. (1998) conducted a comparative study of rifabutin absorption and disposition in HIV-infected patients with or without wasting syndrome.

[5] = single dose of 250 mg of clarithromycin; cited from earlier work
[6] = Literature Cmax of clarithromycin (Chu et al., 1993); details: in vivo; clarithromycin 190 mg dose; read-out: Cmax, literature value scaled to dose of the study
Procedure: The results obtained from dry and PEG formulations of triple combination capsules were approximately proportional to literature findings. Chu et al. (1993) reported that the rise of clarithromycin peak concentrations occur non-linearly to dose which might explain any slight disproportionality between the literature values and those obtained from triple combination capsules dry and PEG formulations.
Clarithromycin—500 mg (four 125-mg capsules, Abbott Laboratories) every 12 hours for 5 doses.

[7] = 25-O-desacetylrifabutin, geometric mean ratio dry/PEG formulation of triple combination capsules
[8] = clofazimine, geometric mean ratio dry/PEG formulation of triple combination capsules
[9] = rifabutin, geometric mean ratio dry/PEG formulation of triple combination capsules
[10] = clarithromycin, geometric mean ratio dry/PEG formulation of triple combination capsules

For “25-O-desacetylrifabutin [25-0-DESACETYLRIFABUTIN]”, the “Relative bioavailability, Ratio of Means, AUC0-t” value [1, 7] was 73.95%, the “Relative bioavailability, Ratio of Means, Cmax” value [1, 7] was 73.43% and the “Relative bioavailability, Ratio of Means, AUC0-inf” value ([1]; 25-O-desacetylrifabutin, geometric mean ratio dry/PEG formulation, approximately 65% of subjects excluded) was 86.06%.

In the case of CC(C)/N=c1\cc2n(-c3ccc(Cl)cc3)c3ccccc3nc-2cc1Nc1ccc(Cl)cc1 [CLOFAZIMINE, clofazimine], the Cmax [2] is listed as 227 ng/mL, the Cmax [3] is listed as 23 ng/mL and the “Relative bioavailability, Ratio of Means, AUC0-t” value [1, 8] is listed as 102.38%. For the same molecule, the “Relative bioavailability, Ratio of Means, Cmax” value [1, 8] was 118.63%, the “Relative bioavailability, Ratio of Means, AUC0-t” value ([1]; clofazimine, geometric mean ratio dry/PEG formulation of triple combination capsules, listed as clofazimine) was 102% and the “Relative bioavailability, Ratio of Means, AUC0-inf” value ([1]; clofazimine, geometric mean ratio dry/PEG formulation, approximately 50% (A) and 75% (B) of subjects excluded) was 120.52%.

For CO[C@H]1/C=C/O[C@@]2(C)Oc3c(C)c(O)c4c(c3C2=O)C2=NC3(CCN(CC(C)C)CC3)NC2=C(NC(=O)/C(C)=C\C=C\[C@H](C)[C@H](O)[C@@H](C)[C@@H](O)[C@@H](C)[C@H](OC(C)=O)[C@@H]1C)C4=O [RIFABUTIN, rifabutin], the “Cmax (peak concentration)” value [4] is listed as 340 ± 140 ng/mL, the “Relative bioavailability, Ratio of Means, AUC0-inf” value [1, 9] is listed as 73.23% and the “Relative bioavailability, Ratio of Means, AUC0-t” value [1, 9] is listed as 77.00%. For the same molecule, the “Relative bioavailability, Ratio of Means, Cmax” value [1, 9] was 88.74% and the Cmax (clinical) was 102 ng/mL.

In the case of CC[C@H]1OC(=O)[C@H](C)[C@@H](O[C@H]2C[C@@](C)(OC)[C@@H](O)[C@H](C)O2)[C@H](C)[C@@H](O[C@@H]2O[C@H](C)C[C@H](N(C)C)[C@H]2O)[C@](C)(OC)C[C@@H](C)C(=O)[C@H](C)[C@@H](O)[C@]1(C)O [CLARITHROMYCIN, clarithromycin], the Cmax [5] is given as 780 ± 250 ng/mL, the “Relative bioavailability, Ratio of Means, AUC0-inf” value [1, 10] is given as 80.78% and the “Relative bioavailability, Ratio of Means, AUC0-t” value [1, 10] is given as 80.34%. For the same molecule, the “Relative bioavailability, Ratio of Means, Cmax” value [1, 10] was 75.03% and the Cmax [6] was 593 ng/mL.
